The results in this text go back to patent publication US6875771B2, “Pyridopyrimidine derivatives as 5-HT6 antagonists” (Bristol-Myers Squibb Company, priority 2002, dated 2005).

By IC50 is commonly meant the concentration that inhibits the measured activity by half. Read a low IC50 as inhibition by little substance.

T1 sequence (P50406 whole entry): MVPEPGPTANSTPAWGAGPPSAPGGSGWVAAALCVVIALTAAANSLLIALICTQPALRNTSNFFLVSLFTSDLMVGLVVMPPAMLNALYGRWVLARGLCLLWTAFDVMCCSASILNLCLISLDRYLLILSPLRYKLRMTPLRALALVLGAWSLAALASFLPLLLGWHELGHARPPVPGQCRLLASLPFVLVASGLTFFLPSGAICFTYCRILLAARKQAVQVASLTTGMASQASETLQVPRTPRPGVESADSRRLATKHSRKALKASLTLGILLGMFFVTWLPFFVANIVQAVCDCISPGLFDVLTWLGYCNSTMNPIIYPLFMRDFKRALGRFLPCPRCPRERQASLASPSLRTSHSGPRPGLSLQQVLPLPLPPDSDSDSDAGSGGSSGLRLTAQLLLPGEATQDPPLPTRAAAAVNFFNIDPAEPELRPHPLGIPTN

This assay concerns the target T1, human 5-HT6 receptor (Homo sapiens, UniProt P50406).
T1 construct: expressed in transfected cells
In words: Radioligand binding at the 5-HT6 receptor (3H-LSD displacement). As to conditions: inhibition of 3H-LSD (1.6 nM) binding; membranes of cell line stably expressing human 5-HT6 receptor; 60 minutes at 37° C. The protocol: Radioligand Binding at the 5-HT6 Receptor
Compounds of the present invention were evaluated using a cell line that stably expresses the human 5-HT6 receptor. Membranes prepared from the cell line were incubated with 3H-LSD (1.6 nM) in the presence of increasing concentrations (10^−10 to 10^−6 M) of test compounds for 60 minutes at 37° C. The reaction was terminated by vacuum filtration of the membranes and washing of the filters with assay buffer. Radioactivity retained on the filters was determined using liquid scintillation spectrometry. The potency of the test compound to inhibit 3H-LSD binding to the 5-HT6 receptor was defined as the concentration of compound required to inhibit 50% (IC50) of radioligand binding as determined by computer assisted analysis of the data. Clozapine was used as an internal standard for comparison.
In the case of `CSc1nc2ccccn2c(=N)c1S(=O)(=O)c1ccc(Cl)c(Cl)c1` [Example 6, 3-(3,4-Dichloro-benzenesulfonyl)-2-methylsulfanyl-pyrido[1,2-a]pyrimidin-4-ylideneamine], the IC50 is < 20 nM.

As for `CSc1nc2c(OCc3ccccc3)cccn2c(=N)c1S(=O)(=O)c1ccccc1` [Example 22, 3-Benzenesulfonyl-9-benzyloxy-2-methylsulfanyl-pyrido[1,2-a]pyrimidin-4-ylideneamine], the IC50 lay in the range of 100 to 1000 nM.

With `CSc1nc2ccccn2c(=N)c1S(=O)(=O)c1ccccc1` [Example 2, 3-Benzenesulfonyl-2-methylsulfanyl-pyrido[1,2-a]pyrimidin-4-ylideneamine], the half-maximal inhibitory concentration (IC50) was < 20 nM.

`CCOc1nc2ccccn2c(=N)c1S(=O)(=O)c1ccccc1` [Example 31, 3-Benzenesulfonyl-2-ethoxy-pyrido[1,2-a]pyrimidin-4-ylideneamine]: the half-inhibitory concentration (IC50) is < 20 nM.

The compound `CSc1nc2ccccn2c(=N)c1S(=O)(=O)c1ccc2ccccc2c1` [Example 3, 2-Methylsulfanyl-3-(naphthalene-2-sulfonyl)-pyrido[2-a]pyrimidin-4-ylideneamine] showed a half-maximal inhibitory concentration (IC50) of 50 to 100 nM.

`N=c1c(S(=O)(=O)c2ccccc2)c(NCCO)nc2ccccn12` [Example 29, 2-(3-Benzenesulfonyl-4-imino-4H-pyrido[1,2-a]pyrimidin-2-ylamino)-ethanol]: the IC50 was < 20 nM.

Regarding `CSc1nc2ccccn2c(=N)c1S(=O)(=O)c1cc(C)c(Cl)cc1C` [Example 4, 3-(2,5-Dimethyl-4-Chloro-benzenesulfonyl)-2-methylsulfanyl-pyrido[1,2-a]pyrimidin-4-ylideneamine], the concentration for half-maximal inhibition (IC50) is < 20 nM.

For the compound `CSc1nc2ccc(C(N)=O)cn2c(=N)c1S(=O)(=O)c1ccccc1` [Example 25, 3-Benzenesulfonyl-4-imino-2-methylsulfanyl-4H-pyrido[1,2-a]pyrimidine-7-carboxylic acid amide], the IC50 was < 20 nM.

In turn, `CCCc1ccn2c(=N)c(S(=O)(=O)c3ccccc3)c(SC)nc2c1` [Example 18, 3-Benzenesulfonyl-2-methylsulfanyl-8-propyl-pyrido[1,2-a]pyrimidin-4-ylideneamine] yielded a half-inhibitory concentration (IC50) of 100 to 1000 nM.

With `CCc1ccn2c(=N)c(S(=O)(=O)c3ccccc3)c(SC)nc2c1` [Example 17, 3-Benzenesulfonyl-8-ethyl-2-methylsulfanyl-pyrido[1,2-a]pyrimidin-4-ylideneamine], the IC50 lay in the range of 50 to 100 nM.

In the case of `CSc1nc2ccc(F)cn2c(=N)c1S(=O)(=O)c1ccccc1` [Example 21, 3-Benzenesulfonyl-7-fluoro-2-methylsulfanyl-pyrido[1,2-a]pyrimidin-4-ylideneamine], the IC50 was < 20 nM.

Compound `CN=c1c(S(=O)(=O)c2ccccc2)c(SC)nc2ccccn12` [Example 33] gave an IC50 of 100 to 1000 nM.

For `CNc1nc2ccccn2c(=N)c1S(=O)(=O)c1ccccc1` [Example 26], the half-maximal inhibitory concentration (IC50) was < 20 nM.

As to `C[S+]([O-])c1nc2ccccn2c(=N)c1S(=O)(=O)c1ccccc1` (centres unmarked) [Example 32, 3-Benzenesulfonyl-2-methanesulfinyl-pyrido[1,2-a]pyrimidin-4-ylideneamine], the IC50 was in the range of 100 to 1000 nM.

For the compound `CSc1nc2cc(C)ccn2c(=N)c1S(=O)(=O)c1ccccc1` [Example 11, 3-Benzenesulfonyl-8-methyl-2-methylsulfanyl-pyrido[1,2-a]pyrimidin-4-ylideneamine], the IC50 is < 20 nM.

Compound `CSc1nc2c3ncccc3ccn2c(=N)c1S(=O)(=O)c1ccccc1` [Example 24, 7-Benzenesulfonyl-6-methylsulfanyl-4,5,8a-triaza-phenanthren-8-ylideneamine] came in with an IC50 of 50 to 100 nM.

In turn, `COC(=O)c1ccc2nc(SC)c(S(=O)(=O)c3ccccc3)c(=N)n2c1` [Example 19, 3-Benzenesulfonyl-4-imino-2-methylsulfanyl-4H-pyrido[1,2-a]pyrimidine-7-carboxylic acid methyl ester] returned a 50% inhibitory concentration (IC50) of 100 to 1000 nM.

As for `CSc1nc2ccccn2c(=N)c1S(=O)(=O)c1ccc(OC(F)(F)F)cc1` [Example 9, 3-(4-Trifluoromethoxy-benzenesulfonyl)-2-methylsulfanyl-pyrido[1,2-a]pyrimidin-4-ylideneamine], the IC50 lay in the range of 100 to 1000 nM.

`CSc1nc2c(Br)cc(C)cn2c(=N)c1S(=O)(=O)c1ccccc1` [Example 15, 3-Benzenesulfonyl-9-bromo-7-methyl-2-methylsulfanyl-pyrido[1,2-a]pyrimidin-4-ylideneamine] gave a half-inhibitory concentration (IC50) of 100 to 1000 nM.

In the case of `CSc1nc2c(C)cccn2c(=N)c1S(=O)(=O)c1ccccc1` [Example 10, 3-Benzenesulfonyl-9-methyl-2-methylsulfanyl-pyrido[1,2-a]pyrimidin-4-ylideneamine], the IC50 is < 20 nM.

Take `CSc1nc2ccc(Cl)cn2c(=N)c1S(=O)(=O)c1ccccc1` [Example 13, 3-Benzenesulfonyl-7-chloro-2-methylsulfanyl-pyrido[1,2-a]pyrimidin-4-ylideneamine]: the half-maximal inhibitory concentration (IC50) is < 20 nM.

As to `CSc1nc2ccccn2c(=N)c1S(=O)(=O)c1ccccc1Cl` [Example 7, 3-(2-Chloro-benzenesulfonyl)-2-methylsulfanyl-pyrido[1,2-a]pyrimidin-4-ylideneamine], the half-maximal inhibitory concentration (IC50) is < 20 nM.

With `CSc1nc2ccc(C)cn2c(=N)c1S(=O)(=O)c1ccccc1` [Example 14, 3-Benzenesulfonyl-7-methyl-2-methylsulfanyl-pyrido[1,2-a]pyrimidin-4-ylideneamine], the IC50 was < 20 nM.

Turning to `Cc1ccc(Nc2nc3ccc(C)cn3c(=N)c2S(=O)(=O)c2ccccc2)nc1` [Example 28], the half-inhibitory concentration (IC50) is 50 to 100 nM.

As to `CCNc1nc2ccccn2c(=N)c1S(=O)(=O)c1ccccc1` [Example 27, 3-(Benzenesulfonyl-4-imine-4H-pyrido[1,2-a]pyrimidin-2-yl)-ethyl-amine], the IC50 was < 20 nM.

As to `CSc1nc2ccc(Br)cn2c(=N)c1S(=O)(=O)c1ccccc1` [Example 12, 3-Benzenesulfonyl-7-bromo-2-methylsulfanyl-pyrido[1,2-a]pyrimidin-4-ylideneamine], the concentration for half-maximal inhibition (IC50) was < 20 nM.

As for `CSc1nc2ccccn2c(=O)c1S(=O)(=O)c1ccccc1` [Example 35, 3-Benzenesulfonyl-2-methylsulfanyl-pyrido[1,2-a]pyrimidin-4-one], the half-maximal inhibitory concentration (IC50) lay within 50 to 100 nM.

As to `CSc1nc2c(C)cc(Cc3ccccc3)cn2c(=N)c1S(=O)(=O)c1ccccc1` [Example 20, 3-Benzenesulfonyl-7-benzyl-9-methyl-2-methylsulfanyl-pyrido[1,2-a]pyrimidin-4-ylideneamine], the half-inhibitory concentration (IC50) was in the range of 50 to 100 nM.

In turn, `CSc1nc2c3ccccc3ccn2c(=N)c1S(=O)(=O)c1ccccc1` [Example 23, 3-Benzenesulfonyl-2-methylsulfanyl-pyrimido[2,1-a]isoquinolin-4-ylideneamine] registered an IC50 of 50 to 100 nM.

`CSc1nc2ccccn2c(=N)c1S(=O)(=O)c1ccc(Cl)cc1` [Example 1, 3-(4-Chloro-benzenesulfonyl)-2-methylsulfanyl-pyrido[1,2-a]pyrimidin-4-ylideneamine]: the half-maximal inhibitory concentration (IC50) is < 20 nM.

For `COc1nc2ccccn2c(=N)c1S(=O)(=O)c1ccccc1` [Example 30, 3-Benzenesulfonyl-2-methoxy-pyrido[1,2-a]pyrimidin-4-ylideneamine], the half-maximal inhibitory concentration (IC50) was < 20 nM.

Regarding `CSc1nc2c(C)cc(Br)cn2c(=N)c1S(=O)(=O)c1ccccc1` [Example 16, 3-Benzenesulfonyl-7-bromo-9-methyl-2-methylsulfanyl-pyrido[1,2-a]pyrimidin-4-ylideneamine], the IC50 is < 20 nM.

`CSc1nc2ccccn2c(=N)c1S(=O)(=O)c1ccc(C(C)(C)C)cc1` [Example 8, 3-(4-t-Butyl-benzenesulfonyl)-2-methylsulfanyl-pyrido[1,2-a]pyrimidin-4-ylideneamine] displayed an IC50 of 50 to 100 nM.

Compound `CSc1nc2ccccn2c(=NC(C)=O)c1S(=O)(=O)c1ccccc1` [Example 34, N-(3-Benzenesulfonyl-2-methylsulfanyl-pyrido[1,2-a]pyrimidin-4-ylidene)-acetamide] yielded a 50% inhibitory concentration (IC50) of 50 to 100 nM.

As to `CSc1nc2ccccn2c(=N)c1S(=O)(=O)c1ccc(F)cc1` [Example 5, 3-(4-Fluoro-benzenesulfonyl)-2-methylsulfanyl-pyrido[1,2-a]pyrimidin-4-ylideneamine], the IC50 is < 20 nM.
